According to ChEMBL document CHEMBL1201862, “PubChem BioAssay data set” (2004):
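Grown in 96-well plates, cells were treated for 48 hours with each compound at five concentrations. Insufficient inhibition: endpoint recorded as highest concentration tested. GI50 = concentration required for 50% inhibition of growth.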 Calls of active or inactive are those of the source. Rule as the data show it: active = GI50 up to about 1.1 µM and inactive = higher.

Experiments:
Assay in all cases: NCI tumour cell line growth inhibition, 48 h
786-0 = tested on: 786-0
A498 = tested on: A498
A549 = tested on: A549
ACHN = tested on: ACHN
BT-549 = tested on: BT-549
CAKI-1 = tested on: CAKI-1
CCRF-CEM = tested on: CCRF-CEM
COLO 205 = tested on: COLO 205
DU-145 = tested on: DU-145
EKVX = tested on: EKVX
HCC 2998 = tested on: HCC 2998
HCT-116 = tested on: HCT-116
HCT-15 = tested on: HCT-15
HL-60 = tested on: HL-60
HOP-62 = tested on: HOP-62
HOP-92 = tested on: HOP-92
HT-29 = tested on: HT-29
IGROV-1 = tested on: IGROV-1
K562 = tested on: K562
KM12 = tested on: KM12
LOX IMVI = tested on: LOX IMVI
M14 = tested on: M14
MCF7 = tested on: MCF7
MDA-MB-231 = tested on: MDA-MB-231
MDA-MB-435 = tested on: MDA-MB-435
MOLT-4 = tested on: MOLT-4
NCI-H226 = tested on: NCI-H226
NCI-H23 = tested on: NCI-H23
NCI-H460 = tested on: NCI-H460
NCI-H522 = tested on: NCI-H522
NCI/ADR-RES = tested on: NCI/ADR-RES
OVCAR-3 = tested on: OVCAR-3
OVCAR-4 = tested on: OVCAR-4
OVCAR-5 = tested on: OVCAR-5
OVCAR-8 = tested on: OVCAR-8
PC-3 = tested on: PC-3
RPMI-8226 = tested on: RPMI-8226
RXF 393 = tested on: RXF 393
SF-268 = tested on: SF-268
SF-295 = tested on: SF-295
SF-539 = tested on: SF-539
SK-MEL-28 = tested on: SK-MEL-28
SK-MEL-2 = tested on: SK-MEL-2
SK-MEL-5 = tested on: SK-MEL-5
SK-OV-3 = tested on: SK-OV-3
SN12C = tested on: SN12C
SNB-75 = tested on: SNB-75
SR = tested on: SR
SW-620 = tested on: SW-620
T47D = tested on: T47D
TK-10 = tested on: TK-10
U-251 = tested on: U-251
UACC-257 = tested on: UACC-257
UACC-62 = tested on: UACC-62
UO-31 = tested on: UO-31
Malme-3M = tested on: Malme-3M
SNB-19 = tested on: SNB-19

For `Cc1cc(Cc2cc(C)c(NC(=O)C(=O)C3CCC4=C(SC5C=CC=CC5N4)C3=O)c(C(C)C)c2)cc(C(C)C)c1NC(=O)C(=O)C1CCC2=C(SC3C=CC=CC3N2)C1=O` (stereo not given), the GI50 (786-0) was > 100 µM (inactive), the GI50 (A498) was > 100 µM (inactive) and the GI50 (A549) was 64 µM (inactive). For the same molecule, the GI50 (ACHN) was 62.4 µM (inactive), the GI50 (BT-549) was 38.4 µM (inactive) and the GI50 (CAKI-1) was 53.6 µM (inactive). For the same molecule, the GI50 (CCRF-CEM) was 46.5 µM (inactive), the GI50 (COLO 205) was 44.6 µM (inactive) and the GI50 (DU-145) was > 100 µM (inactive). The GI50 (EKVX) was 52.7 µM (inactive), the GI50 (HCC 2998) was 30.5 µM (inactive) and the GI50 (HCT-116) was 47 µM (inactive). For the same molecule, the GI50 (HCT-15) was 34.9 µM, the GI50 (HL-60) was 40.6 µM (inactive) and the GI50 (HOP-62) was 94.4 µM (inactive). For the same molecule, the GI50 (HOP-92) was > 100 µM (inactive), the GI50 (HT-29) was 58.6 µM (inactive) and the GI50 (IGROV-1) was 34 µM (inactive). The GI50 (K562) was 55.7 µM (inactive), the GI50 (KM12) was 43.3 µM (inactive) and the GI50 (LOX IMVI) was 96.6 µM (inactive). The GI50 (M14) was > 100 µM (inactive), the GI50 (MCF7) was 62.5 µM (inactive) and the GI50 (MDA-MB-231) was 95.9 µM (inactive). The GI50 (MDA-MB-435) was > 100 µM (inactive), the GI50 (MOLT-4) was 32.2 µM (inactive) and the GI50 (NCI-H226) was 31 µM (inactive). For the same molecule, the GI50 (NCI-H23) was 41.4 µM (inactive), the GI50 (NCI-H460) was 53.1 µM (inactive) and the GI50 (NCI-H522) was 19.9 µM (inactive). For the same molecule, the GI50 (NCI/ADR-RES) was 35.5 µM (inactive), the GI50 (OVCAR-3) was 35 µM (inactive) and the GI50 (OVCAR-4) was 33.7 µM (inactive). The GI50 (OVCAR-5) was > 100 µM (inactive), the GI50 (OVCAR-8) was 29.7 µM (inactive) and the GI50 (PC-3) was 25.1 µM (inactive). For the same molecule, the GI50 (RPMI-8226) was 37.4 µM (inactive), the GI50 (RXF 393) was 44 µM (inactive) and the GI50 (SF-268) was 74.8 µM (inactive). The GI50 (SF-295) was 69.7 µM (inactive), the GI50 (SF-539) was 12.5 µM (inactive) and the GI50 (SK-MEL-28) was > 100 µM (inactive). For the same molecule, the GI50 (SK-MEL-2) was 45.5 µM (inactive), the GI50 (SK-MEL-5) was 35.8 µM (inactive) and the GI50 (SK-OV-3) was > 100 µM (inactive). For the same molecule, the GI50 (SN12C) was 84.1 µM (inactive), the GI50 (SNB-75) was 94.6 µM (inactive) and the GI50 (SR) was 60.8 µM (inactive). The GI50 (SW-620) was 38 µM (inactive), the GI50 (T47D) was 29.2 µM (inactive) and the GI50 (TK-10) was > 100 µM (inactive). For the same molecule, the GI50 (U-251) was 50.1 µM (inactive), the GI50 (UACC-257) was > 100 µM (inactive) and the GI50 (UACC-62) was 53.1 µM (inactive). For the same molecule, the GI50 (UO-31) was 41.3 µM (inactive).
`CC1(C)COC(c2cccc(C3=NC(C)(C)CO3)c2Br)=N1` was tested, and the GI50 (786-0) was > 100 µM (inactive), the GI50 (A549) was > 100 µM (inactive) and the GI50 (ACHN) was > 100 µM (inactive). For the same molecule, the GI50 (BT-549) was > 100 µM (inactive), the GI50 (CAKI-1) was > 100 µM (inactive) and the GI50 (COLO 205) was > 100 µM (inactive). For the same molecule, the GI50 (DU-145) was > 100 µM (inactive), the GI50 (EKVX) was > 100 µM (inactive) and the GI50 (HCC 2998) was > 100 µM (inactive). For the same molecule, the GI50 (HCT-116) was > 100 µM (inactive), the GI50 (HCT-15) was greater than 100 µM and the GI50 (HL-60) was > 100 µM (inactive). The GI50 (HOP-62) was > 100 µM (inactive), the GI50 (HOP-92) was > 100 µM (inactive) and the GI50 (HT-29) was > 100 µM (inactive). The GI50 (IGROV-1) was > 100 µM (inactive), the GI50 (K562) was > 100 µM (inactive) and the GI50 (KM12) was > 100 µM (inactive). For the same molecule, the GI50 (LOX IMVI) was > 100 µM (inactive), the GI50 (M14) was > 100 µM (inactive) and the GI50 (MCF7) was > 100 µM (inactive). The GI50 (MDA-MB-231) was > 100 µM (inactive), the GI50 (MDA-MB-435) was > 100 µM (inactive) and the GI50 (MOLT-4) was > 100 µM (inactive). For the same molecule, the GI50 (Malme-3M) was > 100 µM (inactive), the GI50 (NCI-H226) was > 100 µM (inactive) and the GI50 (NCI-H23) was > 100 µM (inactive). For the same molecule, the GI50 (NCI-H460) was > 100 µM (inactive), the GI50 (NCI/ADR-RES) was > 100 µM (inactive) and the GI50 (OVCAR-4) was > 100 µM (inactive). For the same molecule, the GI50 (OVCAR-5) was > 100 µM (inactive), the GI50 (OVCAR-8) was > 100 µM (inactive) and the GI50 (PC-3) was > 100 µM (inactive). For the same molecule, the GI50 (RPMI-8226) was > 100 µM (inactive), the GI50 (RXF 393) was > 100 µM (inactive) and the GI50 (SF-268) was > 100 µM (inactive). The GI50 (SF-539) was > 100 µM (inactive), the GI50 (SK-MEL-28) was > 100 µM (inactive) and the GI50 (SK-MEL-2) was > 100 µM (inactive). The GI50 (SK-MEL-5) was > 100 µM (inactive), the GI50 (SNB-19) was > 100 µM (inactive) and the GI50 (SNB-75) was 3.05 µM (inactive). For the same molecule, the GI50 (SR) was > 100 µM (inactive), the GI50 (SW-620) was > 100 µM (inactive) and the GI50 (T47D) was > 100 µM (inactive). The GI50 (TK-10) was > 100 µM (inactive), the GI50 (U-251) was > 100 µM (inactive) and the GI50 (UACC-257) was > 100 µM (inactive). The GI50 (UACC-62) was 7.48 µM (inactive) and the GI50 (UO-31) was > 100 µM (inactive).
